# Source: ChEMBL document CHEMBL3046068, “Design, synthesis, and biological activity of certain quinazolinedione derivatives as potent phosphodiestrase4 inhibitors” (Med Chem Res, 2012)
# Target: 3',5'-cyclic-AMP phosphodiesterase 4B (Homo sapiens) (UniProt Q07343)
# Assay: Inhibition of PDE4B (unknown origin) using FAM-cAMP as substrate at 10 uM after 60 min by fluorescence polarization assay
# Chain of 3',5'-cyclic-AMP phosphodiesterase 4B (Homo sapiens) (Q07343 whole entry): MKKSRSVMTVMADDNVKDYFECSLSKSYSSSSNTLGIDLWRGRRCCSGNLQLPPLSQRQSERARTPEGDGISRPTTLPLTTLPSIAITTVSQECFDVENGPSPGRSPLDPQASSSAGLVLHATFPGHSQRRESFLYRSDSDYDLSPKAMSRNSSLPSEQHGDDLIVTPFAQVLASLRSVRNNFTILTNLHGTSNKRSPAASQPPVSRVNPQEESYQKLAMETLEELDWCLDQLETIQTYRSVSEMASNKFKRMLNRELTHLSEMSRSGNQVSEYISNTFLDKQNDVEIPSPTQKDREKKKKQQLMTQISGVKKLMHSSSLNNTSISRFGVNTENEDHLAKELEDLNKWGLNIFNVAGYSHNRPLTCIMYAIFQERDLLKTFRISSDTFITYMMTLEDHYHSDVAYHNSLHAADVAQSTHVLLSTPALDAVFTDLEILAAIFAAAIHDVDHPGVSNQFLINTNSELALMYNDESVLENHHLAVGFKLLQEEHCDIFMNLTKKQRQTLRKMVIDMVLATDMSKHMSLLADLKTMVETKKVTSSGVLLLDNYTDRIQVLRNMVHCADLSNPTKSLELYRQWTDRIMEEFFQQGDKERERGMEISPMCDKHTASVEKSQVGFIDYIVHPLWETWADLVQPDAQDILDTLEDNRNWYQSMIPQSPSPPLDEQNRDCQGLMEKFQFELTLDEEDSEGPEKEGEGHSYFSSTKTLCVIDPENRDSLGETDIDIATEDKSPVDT
row,SMILES,inhibition [%]
1,CCCCn1c(=O)c2ccccc2n(CCCN(CC)CC)c1=O,9
2,CCCCn1c(=O)c2ccccc2n(CCN(CC)CC)c1=O,8
3,CCCCn1c(=O)c2ccccc2n(Cc2ccccc2)c1=O,56
4,CCCCn1c(=O)c2ccccc2n(CCN2CCN(c3ccccc3)CC2)c1=O,25
5,CCCCn1c(=O)c2ccccc2n(CC(=O)c2ccccc2)c1=O,22
6,CCCCn1c(=O)c2ccccc2n(CC(=O)c2ccc(Cl)cc2)c1=O,8

# More lines, now with the values ahead:
row,inhibition [%],SMILES
1,17,CCCCn1c(=O)c2ccccc2n(CCN2CCOCC2)c1=O
2,11,CCCCn1c(=O)c2ccccc2n(CCCN2CCCCC2)c1=O
3,100,CCCCn1c(=O)c2ccccc2n(CCCN2CCOCC2)c1=O
4,13,CCCCn1c(=O)c2ccccc2n(CCCN2CCN(c3ccccc3)CC2)c1=O
5,11,CCCCn1c(=O)c2ccccc2n(CCN2CCCCC2)c1=O
